Data reported in US4340594A, “Fat emulsion containing steroid” (The Green Cross Corporation, priority 1980, dated 1982).

How the values were obtained:
[1] = in vivo; settings: mouse, iv
[2] = test system: dd strain mice; settings: mouse, in vivo, iv

SMILES	LD50 [1]	LD50 [2]
C[C@@H]1C[C@H]2[C@@H]3CCC4=CC(=O)C=C[C@]4(C)[C@@]3(F)[C@@H](O)C[C@]2(C)[C@@]1(O)C(=O)COP(=O)(O)O [dexamethasone phosphate]	140 mg/kg	115 mg/kg
CCCCCCCCCCCCCCCC(=O)OCC(=O)[C@@]1(O)[C@H](C)C[C@H]2[C@@H]3CCC4=CC(=O)C=C[C@]4(C)[C@@]3(F)[C@@H](O)C[C@@]21C [dexamethasone palmitate]	580 mg/kg	420 mg/kg
